The text below walks through data of ChEMBL document CHEMBL1138147, “Respiratory syncytial virus fusion inhibitors. Part 3: Water-soluble benzimidazol-2-one derivatives with antiviral activity in vivo” (Bioorg Med Chem Lett, 2006).

pEC50: −log10 of the molar value.

The test system of one data set is Mus musculus. Kind of data set: Efficacy in BALB/c mouse measured as reduction in log TCID50 of RSV per gram of lung at 90 mg/kg, sc. Format: functional. To be noted: route subcutaneous.
Compound `NC(=O)c1ncn([C@@H]2O[C@H](CO)[C@@H](O)[C@H]2O)n1` [RIBAVIRIN] displayed an Efficacy of 1.86.

A further data set concerns Respiratory syncytial virus. The data set can be described thus: Antiviral activity against RSV Long strain in human Hep2 cells. Format: functional, organism-based. To be noted: HEp-2.
For orientation: pEC50 means the EC50 on a negative log10 scale, so that one unit is a factor of ten. Read a low pEC50 as a large EC50. `O=c1n(Cc2ccc(P(=O)(O)O)cc2)c2ccccc2n1Cc1nc2ccccc2[nH]1` had a pEC50 of 6.43.
On the same count and under the same terms, with `CN(C)CCCn1c(Cn2c(O)nc3ccccc32)nc2ccccc21` the figure was 5.78; with `O=C(O)CN(CC(=O)O)C(=O)c1ccc(Cn2c(=O)n(Cc3nc4ccccc4n3CCCCO)c3ccccc32)cc1`, 7.24; with `CC(C)CCn1c(Cn2c(=O)n(CCCCC(=O)O)c3ccccc32)nc2ccccc21`, 8.10.
The same measure, in the same setting: with `CC(C)CCn1c(Cn2c(=O)n(CCCS(=O)(=O)O)c3ccccc32)nc2ccccc21` the figure was 7.42; with `O=C(O)Cn1c(=O)n(Cc2nc3ccccc3[nH]2)c2ccccc21`, 6.81; with `C=C(C)n1c(=O)n(Cc2nc3ccccc3n2CCc2nnn[nH]2)c2ccccc21`, 8.10.
Same read-out and setting: with `O=c1n(Cc2ccc(O)cc2)c2ccccc2n1Cc1nc2ccccc2[nH]1` the figure was 7.20; with `CC(C)CCn1c(Cn2c(=O)n(Cc3ccccc3C(=O)O)c3ccccc32)nc2ccccc21`, 7.96; with `COc1ccc(Cn2c(=O)n(Cc3nc4ccccc4[nH]3)c3ccccc32)cc1`, 6.48.
The compound `CC(C)CCn1c(Cn2c(=O)n(CCCCCc3nnn[nH]3)c3ccccc32)nc2ccccc21` had a pEC50 of 7.89.
Still for that read-out and setting: for `Oc1nc2ccccc2n1Cc1nc2ccccc2[nH]1` the value was 6.00.
Take `CC(C)CCn1c(Cn2c(=O)n(Cc3cc(C(=O)O)cc(C(=O)O)c3)c3ccccc32)nc2ccccc21`: the pEC50 is 6.18.
Same read-out and setting: with `CC(C)CCn1c(Cn2c(=O)n(CCCC(=O)O)c3ccccc32)nc2ccccc21` the figure was 7.12; with `CC(C)CCn1c(Cn2c(=O)n(CCCCCC(=O)O)c3ccccc32)nc2ccccc21`, 7.82.
The same measure, in the same setting: for `O=C(O)c1cccc(Cn2c(=O)n(Cc3nc4ccccc4[nH]3)c3ccccc32)c1` the value was 8.15; for `CC(C)CCn1c(Cn2c(=O)n(CC(=O)O)c3ccccc32)nc2ccccc21`, 6.79; for `C=C(C)n1c(=O)n(Cc2nc3ccccc3n2Cc2nn[nH]n2)c2ccccc21`, 5.07.
Still for that read-out and setting: with `O=C(O)c1ccc(Cn2c(=O)n(Cc3nc4ccccc4n3CCCO)c3ccccc32)cc1` the figure was 7.31; with `CC(C)CCn1c(Cn2c(=O)n(CCCCc3nnn[nH]3)c3ccccc32)nc2ccccc21`, 7.82.
On to `CC(C)CCn1c(Cn2c(=O)n(Cc3ccc(C(=O)N[C@@H](CP(=O)(O)O)C(=O)O)cc3)c3ccccc32)nc2ccccc21`, for which the negative-log EC50 (pEC50) was 7.47.
As to `CC(C)CCn1c(Cn2c(=O)n(CCCc3nnn[nH]3)c3ccccc32)nc2ccccc21`, the pEC50 was 6.63.

The subject of the next data set is Cotton rat. Kind of data set: Efficacy in cotton rat measured as reduction in log TCID50 of RSV per gram of lung at 1.33 mg/mL. The class given is functional, organism-based. To be noted: Sigmodon.
For `C=C(C)n1c(=O)n(Cc2nc3ccccc3n2CCc2nnn[nH]2)c2ccccc21`, the Activity result was “Toxic”.

Tested on in a further data set: not listed separately
The data set can be described thus: Therapeutic index (CC50/EC50) for RSV infected Hep2 cells. Format: cell-based, HEp-2. To be noted: human, read-out: Ratio CC50/EC50.
Consider `O=c1n(Cc2ccc(P(=O)(O)O)cc2)c2ccccc2n1Cc1nc2ccccc2[nH]1`, for which the selectivity ratio is over 473.
For the compound `CN(C)CCCn1c(Cn2c(O)nc3ccccc32)nc2ccccc21`, the selectivity ratio is 53.
On the same count and under the same terms, with `O=C(O)CN(CC(=O)O)C(=O)c1ccc(Cn2c(=O)n(Cc3nc4ccccc4n3CCCCO)c3ccccc32)cc1` the figure was 1960.
On the same count and under the same terms, for `CC(C)CCn1c(Cn2c(=O)n(CCCCC(=O)O)c3ccccc32)nc2ccccc21` the value was 2060; for `CC(C)CCn1c(Cn2c(=O)n(CCCS(=O)(=O)O)c3ccccc32)nc2ccccc21`, 3010; for `O=C(O)Cn1c(=O)n(Cc2nc3ccccc3[nH]2)c2ccccc21`, 133.
Still for that read-out and setting: with `O=c1n(Cc2ccc(O)cc2)c2ccccc2n1Cc1nc2ccccc2[nH]1` the figure was 932; with `CC(C)CCn1c(Cn2c(=O)n(Cc3ccccc3C(=O)O)c3ccccc32)nc2ccccc21`, 1430; with `COc1ccc(Cn2c(=O)n(Cc3nc4ccccc4[nH]3)c3ccccc32)cc1`, 123.
`CC(C)CCn1c(Cn2c(=O)n(CCCCCc3nnn[nH]3)c3ccccc32)nc2ccccc21`: the selectivity ratio is 6920.
On the same count and under the same terms, for `Oc1nc2ccccc2n1Cc1nc2ccccc2[nH]1` the value was 226; for `CC(C)CCn1c(Cn2c(=O)n(Cc3cc(C(=O)O)cc(C(=O)O)c3)c3ccccc32)nc2ccccc21`, over 256; for `CC(C)CCn1c(Cn2c(=O)n(CCCC(=O)O)c3ccccc32)nc2ccccc21`, 1840.
On the same count and under the same terms, with `CC(C)CCn1c(Cn2c(=O)n(CCCCCC(=O)O)c3ccccc32)nc2ccccc21` the figure was 1100.
Same read-out and setting: for `O=C(O)c1cccc(Cn2c(=O)n(Cc3nc4ccccc4[nH]3)c3ccccc32)c1` the value was 6430; for `C=C(C)n1c(=O)n(Cc2nc3ccccc3n2Cc2nn[nH]n2)c2ccccc21`, 21.
For `O=C(O)c1ccc(Cn2c(=O)n(Cc3nc4ccccc4n3CCCO)c3ccccc32)cc1`, the selectivity ratio was determined as 4280.
On the same count and under the same terms, for `CC(C)CCn1c(Cn2c(=O)n(CCCCc3nnn[nH]3)c3ccccc32)nc2ccccc21` the value was 993.
Same read-out and setting: with `CC(C)CCn1c(Cn2c(=O)n(Cc3ccc(C(=O)N[C@@H](CP(=O)(O)O)C(=O)O)cc3)c3ccccc32)nc2ccccc21` the figure was over 3350; with `CC(C)CCn1c(Cn2c(=O)n(CCCc3nnn[nH]3)c3ccccc32)nc2ccccc21`, 158.

The subject of a further data set is HEp-2. The data set can be described thus: Cytotoxicity against human Hep2 cells infected with RSV Long strain. The class given is functional.
Details: not given
As usually defined, the CC50 is the concentration at which the toxic effect on the cells reaches its halfway point. A lower CC50 goes with greater toxicity to the cells. In turn, `O=c1n(Cc2ccc(P(=O)(O)O)cc2)c2ccccc2n1Cc1nc2ccccc2[nH]1` yielded a CC50 of over 174000 nM.
On the same count and under the same terms, for `CN(C)CCCn1c(Cn2c(O)nc3ccccc32)nc2ccccc21` the value was 89100 nM; for `O=C(O)CN(CC(=O)O)C(=O)c1ccc(Cn2c(=O)n(Cc3nc4ccccc4n3CCCCO)c3ccccc32)cc1`, 112000 nM.
On to `CC(C)CCn1c(Cn2c(=O)n(CCCCC(=O)O)c3ccccc32)nc2ccccc21`, for which half-maximal cytotoxicity (CC50) was put at 16500 nM.
On the same count and under the same terms, with `CC(C)CCn1c(Cn2c(=O)n(CCCS(=O)(=O)O)c3ccccc32)nc2ccccc21` the figure was 114000 nM; with `O=C(O)Cn1c(=O)n(Cc2nc3ccccc3[nH]2)c2ccccc21`, 20600 nM; with `C=C(C)n1c(=O)n(Cc2nc3ccccc3n2CCc2nnn[nH]2)c2ccccc21`, over 249000 nM.
`O=c1n(Cc2ccc(O)cc2)c2ccccc2n1Cc1nc2ccccc2[nH]1`: the CC50 is 58700 nM.
The same measure, in the same setting: with `CC(C)CCn1c(Cn2c(=O)n(Cc3ccccc3C(=O)O)c3ccccc32)nc2ccccc21` the figure was 15700 nM; with `COc1ccc(Cn2c(=O)n(Cc3nc4ccccc4[nH]3)c3ccccc32)cc1`, 41100 nM; with `CC(C)CCn1c(Cn2c(=O)n(CCCCCc3nnn[nH]3)c3ccccc32)nc2ccccc21`, 90000 nM.
On the same count and under the same terms, for `Oc1nc2ccccc2n1Cc1nc2ccccc2[nH]1` the value was 228000 nM; for `CC(C)CCn1c(Cn2c(=O)n(Cc3cc(C(=O)O)cc(C(=O)O)c3)c3ccccc32)nc2ccccc21`, over 168000 nM; for `CC(C)CCn1c(Cn2c(=O)n(CCCC(=O)O)c3ccccc32)nc2ccccc21`, 138000 nM.
`CC(C)CCn1c(Cn2c(=O)n(CCCCCC(=O)O)c3ccccc32)nc2ccccc21` gave a CC50 of 16500 nM. Compared with the last compound, the CC50 is about 8.4-fold lower.
Still for that read-out and setting: for `O=C(O)c1cccc(Cn2c(=O)n(Cc3nc4ccccc4[nH]3)c3ccccc32)c1` the value was over 194000 nM; for `CC(C)CCn1c(Cn2c(=O)n(CC(=O)O)c3ccccc32)nc2ccccc21`, 194000 nM.
The same measure, in the same setting: for `C=C(C)n1c(=O)n(Cc2nc3ccccc3n2Cc2nn[nH]n2)c2ccccc21` the value was 181000 nM.
`O=C(O)c1ccc(Cn2c(=O)n(Cc3nc4ccccc4n3CCCO)c3ccccc32)cc1`: the CC50 was found to be 210000 nM. The CC50 values of the last two compounds are within 1.5-fold of each other.
Same read-out and setting: for `CC(C)CCn1c(Cn2c(=O)n(CCCCc3nnn[nH]3)c3ccccc32)nc2ccccc21` the value was 14900 nM.
As for `CC(C)CCn1c(Cn2c(=O)n(Cc3ccc(C(=O)N[C@@H](CP(=O)(O)O)C(=O)O)cc3)c3ccccc32)nc2ccccc21`, the CC50 was over 114000 nM.
`CC(C)CCn1c(Cn2c(=O)n(CCCc3nnn[nH]3)c3ccccc32)nc2ccccc21` came in with a CC50 of 37100 nM.

The next data set has as its system Cotton rat. The data set can be described thus: Efficacy in cotton rat measured as reduction in log TCID50 of RSV per gram of lung at 0.5 mg/mL. Format: functional, Sigmodon.
Details: not given
`CC(C)CCn1c(Cn2c(=O)n(Cc3ccc(C(=O)N[C@@H](CP(=O)(O)O)C(=O)O)cc3)c3ccccc32)nc2ccccc21` came in with an Efficacy of 2.43.

The test system of a further data set is Cotton rat. Kind of data set: Efficacy in cotton rat measured as reduction in log TCID50 of RSV per gram of lung at 2.0 mg/mL. The class given is functional. To be noted: Sigmodon.
Take `CC(C)CCn1c(Cn2c(=O)n(CCCCCc3nnn[nH]3)c3ccccc32)nc2ccccc21`: the Activity result is “Toxic”.

In a further data set the test system is Cotton rat. The data set can be described thus: Efficacy in cotton rat measured as reduction in log TCID50 of RSV per gram of lung at 90 mg/kg, ip. Format: functional, Sigmodon. To be noted: route intraperitoneal.
Regarding `NC(=O)c1ncn([C@@H]2O[C@H](CO)[C@@H](O)[C@H]2O)n1` [RIBAVIRIN], the Efficacy is listed as 2.5.
